Test results: ChEMBL document CHEMBL1201862, “PubChem BioAssay data set” (2004)
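These data come from cells grown in 96-well plates and exposed to compound for 48 hours at five concentrations. GI50 = concentration required for 50% inhibition of growth.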 Activity calls are given as the source filed them. No stated cut-off is given here; in the data, active = GI50 up to about 1.1 µM and inactive = higher.

What was measured:
Assay in all cases: NCI-60 cell line screen, 48 h
T47D = test system: T47D
SK-MEL-2 = test system: SK-MEL-2
SR = test system: SR
NCI-H522 = test system: NCI-H522
COLO 205 = test system: COLO 205
ACHN = test system: ACHN
DU-145 = test system: DU-145
SK-OV-3 = test system: SK-OV-3
A549 = test system: A549
SNB-75 = test system: SNB-75
NCI-H23 = test system: NCI-H23
NCI-H226 = test system: NCI-H226
LOX IMVI = test system: LOX IMVI
SK-MEL-28 = test system: SK-MEL-28
NCI/ADR-RES = test system: NCI/ADR-RES
NCI-H460 = test system: NCI-H460
SK-MEL-5 = test system: SK-MEL-5
TK-10 = test system: TK-10
OVCAR-4 = test system: OVCAR-4
PC-3 = test system: PC-3
MDA-MB-231 = test system: MDA-MB-231
Malme-3M = test system: Malme-3M
HT-29 = test system: HT-29
OVCAR-8 = test system: OVCAR-8
HCC 2998 = test system: HCC 2998
SF-539 = test system: SF-539
786-0 = test system: 786-0
RXF 393 = test system: RXF 393
OVCAR-3 = test system: OVCAR-3
RPMI-8226 = test system: RPMI-8226
SF-268 = test system: SF-268
HCT-116 = test system: HCT-116
Hs-578T = test system: Hs-578T
HCT-15 = test system: HCT-15
MDA-N = test system: MDA-N
SNB-19 = test system: SNB-19
SF-295 = test system: SF-295
KM12 = test system: KM12
MOLT-4 = test system: MOLT-4
HOP-62 = test system: HOP-62
MDA-MB-435 = test system: MDA-MB-435
CCRF-CEM = test system: CCRF-CEM
CAKI-1 = test system: CAKI-1
SW-620 = test system: SW-620
M14 = test system: M14
SN12C = test system: SN12C
IGROV-1 = test system: IGROV-1
MCF7 = test system: MCF7
A498 = test system: A498
OVCAR-5 = test system: OVCAR-5
UO-31 = test system: UO-31
UACC-62 = test system: UACC-62
K562 = test system: K562
HL-60 = test system: HL-60
UACC-257 = test system: UACC-257
EKVX = test system: EKVX
U-251 = test system: U-251
HOP-92 = test system: HOP-92

Question: What does the source list for C=C(Br)CN(C(C)=O)C1CCCCC1?
Answer: GI50 (T47D): > 100 µM (inactive); GI50 (SK-MEL-2): > 100 µM (inactive); GI50 (SR): > 100 µM (inactive); GI50 (NCI-H522): > 100 µM (inactive); GI50 (COLO 205): > 100 µM (inactive); GI50 (ACHN): > 100 µM (inactive); GI50 (DU-145): > 100 µM (inactive); GI50 (SK-OV-3): > 100 µM (inactive); GI50 (A549): > 100 µM (inactive); GI50 (SNB-75): > 100 µM (inactive); GI50 (NCI-H23): > 100 µM (inactive); GI50 (NCI-H226): > 100 µM (inactive); GI50 (LOX IMVI): > 100 µM (inactive); GI50 (SK-MEL-28): > 100 µM (inactive); GI50 (NCI/ADR-RES): > 100 µM (inactive); GI50 (NCI-H460): > 100 µM (inactive); GI50 (SK-MEL-5): > 100 µM (inactive); GI50 (TK-10): > 100 µM (inactive); GI50 (OVCAR-4): > 100 µM (inactive); GI50 (PC-3): > 100 µM (inactive); GI50 (MDA-MB-231): > 100 µM (inactive); GI50 (Malme-3M): > 100 µM (inactive); GI50 (HT-29): > 100 µM (inactive); GI50 (OVCAR-8): > 100 µM (inactive); GI50 (HCC 2998): > 100 µM (inactive); GI50 (SF-539): > 100 µM (inactive); GI50 (786-0): > 100 µM (inactive); GI50 (RXF 393): > 100 µM (inactive); GI50 (OVCAR-3): > 100 µM (inactive); GI50 (RPMI-8226): > 100 µM (inactive); GI50 (SF-268): > 100 µM (inactive); GI50 (HCT-116): > 100 µM (inactive); GI50 (Hs-578T): > 100 µM (inactive); GI50 (HCT-15): > 100 µM; GI50 (MDA-N): > 100 µM (inactive); GI50 (SNB-19): > 100 µM (inactive); GI50 (SF-295): > 100 µM (inactive); GI50 (KM12): > 100 µM (inactive); GI50 (MOLT-4): > 100 µM (inactive); GI50 (HOP-62): > 100 µM (inactive); GI50 (MDA-MB-435): > 100 µM (inactive); GI50 (CCRF-CEM): > 100 µM (inactive); GI50 (CAKI-1): > 100 µM (inactive); GI50 (SW-620): > 100 µM (inactive); GI50 (M14): > 100 µM (inactive); GI50 (SN12C): > 100 µM (inactive); GI50 (IGROV-1): > 100 µM (inactive); GI50 (MCF7): > 100 µM (inactive); GI50 (A498): > 100 µM (inactive); GI50 (OVCAR-5): > 100 µM (inactive); GI50 (UO-31): > 100 µM (inactive); GI50 (UACC-62): > 100 µM (inactive); GI50 (K562): > 100 µM (inactive); GI50 (HL-60): > 100 µM (inactive); GI50 (UACC-257): > 100 µM (inactive); GI50 (EKVX): > 100 µM (inactive); GI50 (U-251): > 100 µM (inactive)

Question: How did the GI50 (T47D) turn out when O=c1ccn(-c2ccccn2)c(=O)n1-c1ccccn1 was run?
Answer: The GI50 was > 100 µM (inactive).

Question: And the GI50 (SK-MEL-2)?
Answer: Its GI50 is > 100 µM (inactive).

Question: And the GI50 (NCI-H522)?
Answer: Its GI50 is > 100 µM (inactive).

Question: And the GI50 (COLO 205)?
Answer: Its GI50 is > 100 µM (inactive).

Question: And the GI50 (ACHN)?
Answer: Its GI50 is > 100 µM (inactive).

Question: What about the GI50 (DU-145) of the same molecule?
Answer: The GI50 was > 100 µM (inactive).

Question: And the GI50 (SK-OV-3)?
Answer: Its GI50 is > 100 µM (inactive).

Question: And the GI50 (A549)?
Answer: The GI50 was > 100 µM (inactive).

Question: And the GI50 (SNB-75)?
Answer: The GI50 was > 100 µM (inactive).

Question: What about the GI50 (NCI-H23) of the same molecule?
Answer: The GI50 was > 100 µM (inactive).

Question: What about the GI50 (NCI-H226) of the same molecule?
Answer: Its GI50 is > 100 µM (inactive).

Question: What about the GI50 (LOX IMVI) of the same molecule?
Answer: The GI50 was > 100 µM (inactive).

Question: And the GI50 (SK-MEL-28)?
Answer: The GI50 was > 100 µM (inactive).

Question: What about the GI50 (NCI/ADR-RES) of the same molecule?
Answer: The GI50 was > 100 µM (inactive).

Question: And the GI50 (NCI-H460)?
Answer: The GI50 was > 100 µM (inactive).

Question: And the GI50 (SK-MEL-5)?
Answer: The GI50 was > 100 µM (inactive).

Question: What about the GI50 (TK-10) of the same molecule?
Answer: The GI50 was > 100 µM (inactive).

Question: And the GI50 (OVCAR-4)?
Answer: Its GI50 is > 100 µM (inactive).

Question: And the GI50 (PC-3)?
Answer: The GI50 was > 100 µM (inactive).

Question: What about the GI50 (MDA-MB-231) of the same molecule?
Answer: The GI50 was > 100 µM (inactive).

Question: What about the GI50 (Malme-3M) of the same molecule?
Answer: The GI50 was > 100 µM (inactive).

Question: What about the GI50 (HT-29) of the same molecule?
Answer: The GI50 was > 100 µM (inactive).

Question: And the GI50 (OVCAR-8)?
Answer: Its GI50 is > 100 µM (inactive).

Question: What about the GI50 (HCC 2998) of the same molecule?
Answer: The GI50 was > 100 µM (inactive).

Question: And the GI50 (SF-539)?
Answer: Its GI50 is > 100 µM (inactive).

Question: And the GI50 (786-0)?
Answer: Its GI50 is > 100 µM (inactive).

Question: What about the GI50 (RXF 393) of the same molecule?
Answer: Its GI50 is > 100 µM (inactive).

Question: And the GI50 (OVCAR-3)?
Answer: The GI50 was > 100 µM (inactive).

Question: And the GI50 (RPMI-8226)?
Answer: Its GI50 is > 100 µM (inactive).

Question: And the GI50 (SF-268)?
Answer: Its GI50 is > 100 µM (inactive).

Question: What about the GI50 (HCT-116) of the same molecule?
Answer: The GI50 was > 100 µM (inactive).

Question: What about the GI50 (Hs-578T) of the same molecule?
Answer: The GI50 was > 100 µM (inactive).

Question: What about the GI50 (HCT-15) of the same molecule?
Answer: Its GI50 is greater than 100 µM.

Question: What about the GI50 (HOP-92) of the same molecule?
Answer: The GI50 was > 100 µM (inactive).

Question: What about the GI50 (MDA-N) of the same molecule?
Answer: The GI50 was > 100 µM (inactive).

Question: And the GI50 (SNB-19)?
Answer: Its GI50 is > 100 µM (inactive).

Question: What about the GI50 (SF-295) of the same molecule?
Answer: Its GI50 is > 100 µM (inactive).

Question: What about the GI50 (KM12) of the same molecule?
Answer: Its GI50 is > 100 µM (inactive).

Question: And the GI50 (MOLT-4)?
Answer: The GI50 was > 100 µM (inactive).

Question: What about the GI50 (HOP-62) of the same molecule?
Answer: Its GI50 is > 100 µM (inactive).

Question: What about the GI50 (MDA-MB-435) of the same molecule?
Answer: The GI50 was > 100 µM (inactive).

Question: What about the GI50 (CCRF-CEM) of the same molecule?
Answer: Its GI50 is > 100 µM (inactive).

Question: What about the GI50 (CAKI-1) of the same molecule?
Answer: The GI50 was > 100 µM (inactive).

Question: And the GI50 (SW-620)?
Answer: The GI50 was > 100 µM (inactive).

Question: What about the GI50 (M14) of the same molecule?
Answer: The GI50 was > 100 µM (inactive).

Question: And the GI50 (SN12C)?
Answer: Its GI50 is > 100 µM (inactive).

Question: What about the GI50 (IGROV-1) of the same molecule?
Answer: The GI50 was > 100 µM (inactive).

Question: And the GI50 (MCF7)?
Answer: The GI50 was > 100 µM (inactive).

Question: And the GI50 (A498)?
Answer: The GI50 was > 100 µM (inactive).

Question: And the GI50 (OVCAR-5)?
Answer: The GI50 was > 100 µM (inactive).

Question: And the GI50 (UO-31)?
Answer: Its GI50 is > 100 µM (inactive).

Question: And the GI50 (K562)?
Answer: The GI50 was > 100 µM (inactive).

Question: What about the GI50 (HL-60) of the same molecule?
Answer: The GI50 was > 100 µM (inactive).

Question: What about the GI50 (UACC-257) of the same molecule?
Answer: Its GI50 is > 100 µM (inactive).

Question: What about the GI50 (EKVX) of the same molecule?
Answer: Its GI50 is > 100 µM (inactive).

Question: What about the GI50 (U-251) of the same molecule?
Answer: The GI50 was > 100 µM (inactive).
